In patent US20250154212A1, “METHOD OF DISRUPTING MEMORY AND LIPOPEPTIDE FOR USE IN SUCH METHOD” (The Research Foundation for The State University of New York, priority 2023, published 2025):

Molecular target: T1, KIBRA-PKMζ[PKCι/λ-P291Q;F297S] interaction (Homo sapiens, UniProt Q05513, F480S/P474Q)
T1 construct: expressed in transfected cells; host or cells: HEK293T
T1 sequence (Q05513 184-592 P474Q/F480S): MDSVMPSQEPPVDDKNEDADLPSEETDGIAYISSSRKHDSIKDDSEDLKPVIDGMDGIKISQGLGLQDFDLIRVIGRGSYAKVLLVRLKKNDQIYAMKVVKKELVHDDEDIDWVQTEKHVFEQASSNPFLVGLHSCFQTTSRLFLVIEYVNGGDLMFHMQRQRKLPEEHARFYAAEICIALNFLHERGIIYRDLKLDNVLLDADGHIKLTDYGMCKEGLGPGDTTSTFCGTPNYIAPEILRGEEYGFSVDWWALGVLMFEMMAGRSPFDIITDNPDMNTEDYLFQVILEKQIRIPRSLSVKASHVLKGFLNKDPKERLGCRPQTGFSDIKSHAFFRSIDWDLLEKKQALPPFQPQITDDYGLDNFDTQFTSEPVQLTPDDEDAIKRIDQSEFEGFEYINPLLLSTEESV
Experiment: BiFC assay of KIBRA with mutant PKMζ[PKCι/λ-P291Q;F297S] in HEK293T cells
Format: cell-based
Conditions: 10 μM
Protocol: KIBRA-PKMζ BiFC was performed as previously described (28), using pVen1-FLAG-KIBRA and pVen2-HA-PKMζ, in which PKMζ was cloned between EcoR1 and BamH1 sites. The constructs pVen1 and pVen2 encode the N-terminus (amino acids 1-154) and C-terminus (amino acids 155-238) of the Venus protein, respectively, and the Venus fragments were on the N-terminal of the fusion proteins. pVen2-HA-PKMζ[PKCι/λ-P291Q;F297S] was generated by site-directed mutagenesis using forward-cctggagAagcAAatceggatcccccggtCcctgtccgte and reverse-gacggacaggGaccgggggatccggatTTgctTctccagg primers and the QuickChange II XL Site-Directed Mutagenesis Kit (Agilent Technologies), following manufacturer's instructions. Additional pVen2-HA-PKC isoforms and pVen2-HA-CaMKIIα in the pVen2-HA vector were generated by cloning the N-terminus of the coding sequence of each kinase (table S1) to obtain an in-frame fusion at the C-terminus of the pVen2-HA. Human versions of KIBRA and kinases were used, and all PCR amplified sequences and constructs were verified by DNA sequencing.
HEK293T cells were cultured in Dulbecco's Modified Eagle's Medium supplemented with 10% heat-inactivated fetal bovine serum, 100 U/ml penicillin, […] streptomycin, 2 mM glutamine, and 10 mM HEPES in a T75 tissue culture flask with canted neck and ventilated cap. […]

With `O=S(=O)(O)c1cc(O)c2c(S(=O)(=O)O)cc(S(=O)(=O)O)cc2c1` [ζ-stat, 1-naphthol-3,6,8-trisulphonic acid] the “effect on KIBRA interaction with mutated PKMζ[PKCι/λ-P291Q;F297S] (BiFC)” value was “does not inhibit” and the “effect on KIBRA interaction with mutated PKMζ[PKCι/λ-P291Q;F297S] (BiFC)” value (listed as z-stat) was “has no effects”.
